Measurements published in ChEMBL document CHEMBL1269003, “Design and synthesis of tetrahydropyridothieno[2,3-d]pyrimidine scaffold based epidermal growth factor receptor (EGFR) kinase inhibitors: the role of side chain chirality and Michael acceptor group for maximal potency” (J Med Chem, 2010).
The source made the active and inactive calls. No cut-off for these calls is given here.

How the values were obtained:
[1] = biological target: Epidermal growth factor receptor (Homo sapiens, UniProt P00533, L858R/T790M)
[2] = biological target: T1, Epidermal growth factor receptor (Homo sapiens, UniProt P00533)
[3] = test system: Epidermal growth factor receptor (Homo sapiens), P00533 [L858R,T790M]; conditions: 10 uM
[4] = biological target: T1, Epidermal growth factor receptor; assay: Inhibition of EGFR at 20 uM
HCC827 [5] = assay: Antitumor activity against human HCC827 cells xenografted in mouse assessed as reduction of tumor growth at 5 to 15 mg/kg, iv for 5 days a week measured after 2 weeks; format: functional, organism-based
[6] = AUC (0 to infinity) in Sprague-Dawley rat at 5 mg/kg, iv; format: ADME, organism-based; parameters: time infinity, dose 5 mg/kg, route intravenous; conditions: plasma
Rattus norvegicus = assay: Half life in Sprague-Dawley rat at 5 mg/kg, iv; format: ADME, organism-based; parameters: dose 5 mg/kg, route intravenous; conditions: in vivo
[7] = Antiproliferative activity against human HCC827 cells by MTS assay
[8] = biological target: T1, Epidermal growth factor receptor; conditions: 20 uM
HCC827 [9] = assay: Antitumor activity against human HCC827 cells xenografted in mouse assessed as reduction of tumor growth at 100 mg/kg, iv for 5 days a week measured after 2 weeks; format: functional, organism-based; parameters: dose 100 mg/kg

T1 sequence (P00533 whole entry): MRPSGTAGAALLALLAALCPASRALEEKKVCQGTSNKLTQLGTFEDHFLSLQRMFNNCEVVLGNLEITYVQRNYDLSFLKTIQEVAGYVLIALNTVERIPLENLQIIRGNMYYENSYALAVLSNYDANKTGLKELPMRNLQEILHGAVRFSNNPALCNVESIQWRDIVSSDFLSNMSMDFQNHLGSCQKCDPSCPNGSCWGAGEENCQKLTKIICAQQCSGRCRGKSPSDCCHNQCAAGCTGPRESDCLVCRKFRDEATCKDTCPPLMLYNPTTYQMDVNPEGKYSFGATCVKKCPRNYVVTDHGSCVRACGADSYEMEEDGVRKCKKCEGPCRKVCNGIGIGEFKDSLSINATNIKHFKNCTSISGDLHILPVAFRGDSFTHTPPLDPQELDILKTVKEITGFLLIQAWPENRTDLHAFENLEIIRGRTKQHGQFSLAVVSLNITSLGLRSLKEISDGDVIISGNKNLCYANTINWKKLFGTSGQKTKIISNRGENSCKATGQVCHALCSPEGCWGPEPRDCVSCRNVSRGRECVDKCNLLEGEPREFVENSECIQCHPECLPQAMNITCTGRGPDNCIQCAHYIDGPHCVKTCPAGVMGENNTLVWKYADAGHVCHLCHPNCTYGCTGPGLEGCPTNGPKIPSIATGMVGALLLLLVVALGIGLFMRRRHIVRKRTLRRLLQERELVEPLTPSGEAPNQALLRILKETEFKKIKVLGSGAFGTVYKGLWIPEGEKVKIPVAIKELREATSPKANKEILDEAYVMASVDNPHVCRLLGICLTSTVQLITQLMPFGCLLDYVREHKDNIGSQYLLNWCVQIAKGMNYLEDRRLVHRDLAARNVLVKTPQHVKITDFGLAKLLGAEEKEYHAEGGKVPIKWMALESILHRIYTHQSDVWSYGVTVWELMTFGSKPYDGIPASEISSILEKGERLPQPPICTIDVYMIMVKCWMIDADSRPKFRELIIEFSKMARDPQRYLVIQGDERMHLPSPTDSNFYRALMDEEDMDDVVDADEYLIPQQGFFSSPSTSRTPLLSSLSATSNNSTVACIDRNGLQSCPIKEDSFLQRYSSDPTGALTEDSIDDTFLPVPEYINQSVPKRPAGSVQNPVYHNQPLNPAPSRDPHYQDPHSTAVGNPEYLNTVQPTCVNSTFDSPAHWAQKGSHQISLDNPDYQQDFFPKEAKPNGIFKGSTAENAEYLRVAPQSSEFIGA
Chain of Epidermal growth factor receptor (Homo sapiens), P00533 [L858R,T790M] (P00533 whole entry T790M/L858R, looked up): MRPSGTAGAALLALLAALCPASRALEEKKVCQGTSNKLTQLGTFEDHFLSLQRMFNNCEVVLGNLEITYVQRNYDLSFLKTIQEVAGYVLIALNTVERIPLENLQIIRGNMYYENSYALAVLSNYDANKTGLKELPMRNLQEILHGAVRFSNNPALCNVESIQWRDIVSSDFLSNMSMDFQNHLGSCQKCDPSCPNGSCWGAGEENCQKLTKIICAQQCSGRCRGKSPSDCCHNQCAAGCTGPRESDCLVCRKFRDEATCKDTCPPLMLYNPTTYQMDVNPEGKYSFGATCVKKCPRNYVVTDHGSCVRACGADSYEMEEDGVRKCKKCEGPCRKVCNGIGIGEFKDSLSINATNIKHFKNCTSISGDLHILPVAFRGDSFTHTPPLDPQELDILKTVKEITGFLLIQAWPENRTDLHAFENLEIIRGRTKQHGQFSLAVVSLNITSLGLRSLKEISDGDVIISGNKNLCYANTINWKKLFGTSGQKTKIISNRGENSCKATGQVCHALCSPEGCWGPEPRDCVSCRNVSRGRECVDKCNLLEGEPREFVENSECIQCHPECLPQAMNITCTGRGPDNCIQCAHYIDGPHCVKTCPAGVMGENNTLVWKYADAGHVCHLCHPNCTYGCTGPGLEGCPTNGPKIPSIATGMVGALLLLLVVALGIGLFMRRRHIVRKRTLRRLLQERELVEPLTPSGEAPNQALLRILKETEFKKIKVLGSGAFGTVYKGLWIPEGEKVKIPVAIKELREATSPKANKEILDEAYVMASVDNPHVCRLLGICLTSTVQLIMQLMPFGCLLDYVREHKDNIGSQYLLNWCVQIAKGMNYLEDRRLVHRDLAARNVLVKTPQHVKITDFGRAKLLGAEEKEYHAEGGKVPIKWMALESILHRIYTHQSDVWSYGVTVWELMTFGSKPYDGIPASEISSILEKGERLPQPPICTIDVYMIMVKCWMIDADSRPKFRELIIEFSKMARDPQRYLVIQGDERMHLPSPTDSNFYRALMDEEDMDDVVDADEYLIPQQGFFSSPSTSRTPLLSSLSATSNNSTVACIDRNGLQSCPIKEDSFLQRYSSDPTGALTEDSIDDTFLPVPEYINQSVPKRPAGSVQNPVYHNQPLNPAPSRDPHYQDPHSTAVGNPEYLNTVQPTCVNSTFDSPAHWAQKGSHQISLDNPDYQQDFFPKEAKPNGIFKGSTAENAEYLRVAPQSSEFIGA
Chain of Epidermal growth factor receptor (Homo sapiens, UniProt P00533, L858R/T790M) (P00533 25-1210 T790M/L858R limits assumed): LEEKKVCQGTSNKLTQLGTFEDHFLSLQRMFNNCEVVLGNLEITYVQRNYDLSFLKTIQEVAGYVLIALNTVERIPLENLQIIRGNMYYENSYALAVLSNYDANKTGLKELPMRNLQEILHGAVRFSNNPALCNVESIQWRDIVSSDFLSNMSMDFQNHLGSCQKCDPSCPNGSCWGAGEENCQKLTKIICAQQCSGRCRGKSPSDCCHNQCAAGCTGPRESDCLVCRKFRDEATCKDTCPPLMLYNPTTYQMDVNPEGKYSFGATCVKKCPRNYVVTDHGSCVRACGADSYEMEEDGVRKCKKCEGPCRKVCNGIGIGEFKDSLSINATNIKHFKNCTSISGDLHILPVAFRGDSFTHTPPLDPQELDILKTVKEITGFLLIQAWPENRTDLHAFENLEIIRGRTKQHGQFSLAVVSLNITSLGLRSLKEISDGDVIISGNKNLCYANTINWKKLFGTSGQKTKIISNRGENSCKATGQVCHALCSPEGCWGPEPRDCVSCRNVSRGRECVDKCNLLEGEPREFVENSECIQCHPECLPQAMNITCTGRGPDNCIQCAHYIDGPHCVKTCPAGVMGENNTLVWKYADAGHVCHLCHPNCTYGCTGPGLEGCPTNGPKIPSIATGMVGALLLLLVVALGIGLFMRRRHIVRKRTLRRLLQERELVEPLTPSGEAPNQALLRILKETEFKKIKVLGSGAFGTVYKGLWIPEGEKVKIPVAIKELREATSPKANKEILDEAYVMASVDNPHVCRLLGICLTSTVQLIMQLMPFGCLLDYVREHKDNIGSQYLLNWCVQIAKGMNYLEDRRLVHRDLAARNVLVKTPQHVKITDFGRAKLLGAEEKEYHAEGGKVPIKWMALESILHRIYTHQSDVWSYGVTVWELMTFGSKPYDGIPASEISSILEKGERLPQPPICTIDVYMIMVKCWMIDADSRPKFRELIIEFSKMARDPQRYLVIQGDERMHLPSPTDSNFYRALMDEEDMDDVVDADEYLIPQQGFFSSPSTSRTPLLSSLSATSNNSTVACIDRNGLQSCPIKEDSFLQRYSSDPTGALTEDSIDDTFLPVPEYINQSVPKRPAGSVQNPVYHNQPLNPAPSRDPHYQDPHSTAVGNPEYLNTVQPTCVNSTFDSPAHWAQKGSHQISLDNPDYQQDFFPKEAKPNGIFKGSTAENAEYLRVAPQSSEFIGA

## CC#CC(=O)N1CCc2c(sc3ncnc(N[C@H](CO)c4ccccc4)c23)C1
[1]
  IC50: > 10 µM
[2]
  IC50: 1.27 µM
[3]
  inhibition: < 50%

## CCC(=O)N1CCc2c(sc3ncnc(N[C@H](CO)c4ccccc4)c23)C1
[4]
  IC50: > 20 µM
[3]
  inhibition: < 50%

## C=CC(=O)N1CCc2c(sc3ncnc(N[C@@H](CO)c4ccccc4)c23)C1
[2]
  IC50: 3.06 µM
[3]
  inhibition: < 50%

## CN(C)C/C=C/C(=O)N1CCc2c(sc3ncnc(N[C@H](CO)c4ccccc4)c23)C1
HCC827 [5]
  Activity: Active
[6]
  AUC(0-inf): 337 ng·h/mL
Rattus norvegicus
  t1/2: 1.4 h
[7]
  IC50: 0.002 µM
[1]
  IC50: 0.305 µM
[2]
  IC50: 0.07 µM

## CN(C)C/C=C/C(=O)N1CCc2c(sc3ncnc(NCCO)c23)C1
[2]
  IC50: 4.88 µM
[3]
  inhibition: < 50%

## O=C(/C=C/CN1CCOCC1)N1CCc2c(sc3ncnc(NC(CO)c4ccccc4)c23)C1 (single isomer, unassigned)
[7]
  IC50: 0.004 µM
[1]
  IC50: 1.4 µM
[2]
  IC50: 0.021 µM

## C[C@@H](Nc1ncnc2sc3c(c12)CCCC3)c1ccccc1
[2]
  IC50: > 3.24 µM

## CN1CCN(C/C=C/C(=O)N2CCc3c(sc4ncnc(N[C@H](CO)c5ccccc5)c34)C2)CC1
[7]
  IC50: 0.038 µM
[2]
  IC50: 0.089 µM
[3]
  inhibition: < 50%

## CN(C)C/C=C/C(=O)N1CCc2c(sc3ncnc(N[C@@H](CO)c4ccccc4)c23)C1
[4]
  IC50: > 20 µM
[3]
  inhibition: < 50%

## c1ccc(CCNc2ncnc3sc4c(c23)CCCC4)cc1
[8]
  inhibition: 44.3%

## c1ccc(CNc2ncnc3sc4c(c23)CCC4)cc1
[8]
  inhibition: 69.1%

## CN(C)C/C=C/C(=O)N1CCc2c(sc3ncnc(NC(CO)Cc4ccccc4)c23)C1 (single isomer, unassigned)
[7]
  IC50: 0.032 µM
[1]
  IC50: 4.11 µM
[2]
  IC50: 0.149 µM

## OCCNc1ncnc2sc3c(c12)CCCC3
[4]
  IC50: > 20 µM

## C=CC(=O)N1CCc2c(sc3ncnc(N[C@H](CC)c4ccccc4)c23)C1
[7]
  IC50: 0.024 µM
[1]
  IC50: 2.2 µM
[2]
  IC50: 0.046 µM

## OC[C@@H](Nc1ncnc2sc3c(c12)CCC3)c1ccccc1
[7]
  IC50: 0.324 µM
[2]
  IC50: 1.09 µM

## OC[C@H](Nc1ncnc2sc3c(c12)CCCC3)c1ccccc1
[4]
  IC50: > 20 µM

## C=CC(=O)N1CCc2c(sc3ncnc(N[C@H](C)c4ccccc4)c23)C1
[7]
  IC50: 0.019 µM
[1]
  IC50: 0.739 µM
[2]
  IC50: 0.02 µM

## OC[C@@H](Nc1ncnc2sc3c(c12)CCNC3)c1ccccc1
[4]
  IC50: > 20 µM
[3]
  inhibition: < 50%

## C=CS(=O)(=O)N1CCc2c(sc3ncnc(N[C@H](CO)c4ccccc4)c23)C1
[7]
  IC50: 0.273 µM
[1]
  IC50: 2.48 µM
[2]
  IC50: 0.091 µM

## C[C@@H](Nc1ncnc2sc3c(c12)CCN(C(=O)/C=C/CN(C)C)C3)c1ccccc1
[7]
  IC50: 0.002 µM
[1]
  IC50: 0.596 µM
[2]
  IC50: 0.012 µM

## C=CC(=O)N1CCc2c(sc3ncnc(N[C@H](CO)c4ccccc4)c23)C1
[7]
  IC50: 0.003 µM
[1]
  IC50: 0.1 µM
[2]
  IC50: 0.008 µM

## COc1ccc(CNc2ncnc3sc4c(c23)CCCC4)cc1
[8]
  inhibition: 1.1%

## OC[C@@H](Nc1ncnc2sc3c(c12)CCCC3)c1ccccc1
[7]
  IC50: 0.198 µM
[2]
  IC50: 0.72 µM
[3]
  inhibition: < 50%

## O=C(/C=C/c1ccccc1)N1CCc2c(sc3ncnc(N[C@H](CO)c4ccccc4)c23)C1
[2]
  IC50: 3.5 µM
[3]
  inhibition: < 50%

## OC[C@@H](Nc1ncnc2oc(-c3ccccc3)c(-c3ccccc3)c12)c1ccccc1
[7]
  IC50: 0.518 µM

## c1ccc(CNc2ncnc3sc4c(c23)CCCC4)cc1
[7]
  IC50: > 10 µM
[8]
  inhibition: 76.9%
[3]
  inhibition: < 50%

## Fc1ccc(CNc2ncnc3sc4c(c23)CCCC4)cc1
[8]
  inhibition: 52.7%

## CCN(CC)C/C=C/C(=O)N1CCc2c(sc3ncnc(NC(CO)c4ccccc4)c23)C1 (single isomer, unassigned)
[7]
  IC50: 0.008 µM
[1]
  IC50: 0.93 µM
[2]
  IC50: 0.009 µM

## COc1cc2ncnc(Nc3ccc(F)c(Cl)c3)c2cc1OCCCN1CCOCC1
HCC827 [9]
  Activity: Active
